Results on seven molecules are retold here after PMC6199744, “Development of Chemical Proteomics for the Folateome and Analysis of the Kinetoplastid Folateome” (ACS Infectious Diseases, 2018).

Where two headings read alike, the source gives them in different places.

Holding throughout (type): binding
The target of experiment [1] is T1, HeLa cell extract proteins (Homo sapiens, UniProt Q8TCG1).
T1 construct: endogenous in cells; host or cells: HeLa cell extract

Experiment [2] has as its target T2, HeLa cell extract proteins (Homo sapiens, UniProt P15559).
T2 construct: endogenous in cells; host or cells: HeLa cell extract

The target of experiment [3] is T3, HeLa cell extract proteins (Homo sapiens, UniProt P30050).
T3 construct: endogenous in cells; host or cells: HeLa cell extract

Experiment [4] addresses T4, HeLa cell extract proteins (Homo sapiens, UniProt P04792).
T4 construct: endogenous in cells; host or cells: HeLa cell extract

Experiment [5] concerns the target T5, HeLa cell extract proteins (Homo sapiens, UniProt P60174).
T5 construct: endogenous in cells; host or cells: HeLa cell extract

For experiment [6], the target named is T6, HeLa cell extract proteins (Homo sapiens, UniProt P06576).
T6 construct: endogenous in cells; host or cells: HeLa cell extract
T6 sequence (P06576 48-529): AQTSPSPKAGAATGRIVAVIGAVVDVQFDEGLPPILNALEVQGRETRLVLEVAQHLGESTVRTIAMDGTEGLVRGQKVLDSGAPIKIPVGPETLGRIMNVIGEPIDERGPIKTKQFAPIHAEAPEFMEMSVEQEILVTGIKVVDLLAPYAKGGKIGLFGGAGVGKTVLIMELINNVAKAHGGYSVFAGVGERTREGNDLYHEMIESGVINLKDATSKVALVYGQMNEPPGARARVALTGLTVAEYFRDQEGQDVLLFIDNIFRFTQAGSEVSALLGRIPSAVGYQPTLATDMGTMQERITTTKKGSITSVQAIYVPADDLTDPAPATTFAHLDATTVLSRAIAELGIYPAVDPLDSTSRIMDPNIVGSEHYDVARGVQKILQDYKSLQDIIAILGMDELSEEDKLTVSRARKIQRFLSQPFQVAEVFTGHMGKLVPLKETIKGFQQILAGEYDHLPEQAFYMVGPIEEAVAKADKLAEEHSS

The target in experiment [7] is T7, HeLa cell extract proteins (Homo sapiens, UniProt P34897).
T7 construct: endogenous in cells; host or cells: HeLa cell extract
T7 sequence (P34897 30-504): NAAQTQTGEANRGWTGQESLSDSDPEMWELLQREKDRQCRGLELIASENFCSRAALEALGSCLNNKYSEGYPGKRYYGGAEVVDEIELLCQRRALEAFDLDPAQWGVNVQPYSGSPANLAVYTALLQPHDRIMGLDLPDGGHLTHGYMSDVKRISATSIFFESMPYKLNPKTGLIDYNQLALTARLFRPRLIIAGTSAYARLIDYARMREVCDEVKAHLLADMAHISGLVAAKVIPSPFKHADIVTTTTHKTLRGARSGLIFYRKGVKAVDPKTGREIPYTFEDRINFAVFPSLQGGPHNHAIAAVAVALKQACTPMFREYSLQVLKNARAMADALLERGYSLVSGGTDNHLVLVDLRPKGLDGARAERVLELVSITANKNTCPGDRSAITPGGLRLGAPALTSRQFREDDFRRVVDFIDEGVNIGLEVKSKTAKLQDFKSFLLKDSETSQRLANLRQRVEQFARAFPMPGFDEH

The target of experiment [8] is T8, HeLa cell extract proteins (Homo sapiens, UniProt P05455).
T8 construct: endogenous in cells; host or cells: HeLa cell extract
T8 sequence (P05455 1-408): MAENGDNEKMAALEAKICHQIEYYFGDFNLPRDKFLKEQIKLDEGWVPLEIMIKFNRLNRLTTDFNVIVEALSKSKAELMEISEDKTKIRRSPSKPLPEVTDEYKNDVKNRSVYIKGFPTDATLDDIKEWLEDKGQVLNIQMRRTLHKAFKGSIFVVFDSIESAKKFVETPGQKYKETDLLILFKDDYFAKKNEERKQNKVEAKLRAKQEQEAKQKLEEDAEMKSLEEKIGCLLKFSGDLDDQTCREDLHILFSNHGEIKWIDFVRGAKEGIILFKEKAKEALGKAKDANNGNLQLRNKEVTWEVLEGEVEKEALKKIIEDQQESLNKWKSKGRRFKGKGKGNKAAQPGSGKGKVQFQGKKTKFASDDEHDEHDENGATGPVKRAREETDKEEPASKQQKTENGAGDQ

For experiment [9], the target named is T9, HeLa cell extract proteins (Homo sapiens, UniProt P53621).
T9 construct: endogenous in cells; host or cells: HeLa cell extract
T9 sequence (P53621 1-1224): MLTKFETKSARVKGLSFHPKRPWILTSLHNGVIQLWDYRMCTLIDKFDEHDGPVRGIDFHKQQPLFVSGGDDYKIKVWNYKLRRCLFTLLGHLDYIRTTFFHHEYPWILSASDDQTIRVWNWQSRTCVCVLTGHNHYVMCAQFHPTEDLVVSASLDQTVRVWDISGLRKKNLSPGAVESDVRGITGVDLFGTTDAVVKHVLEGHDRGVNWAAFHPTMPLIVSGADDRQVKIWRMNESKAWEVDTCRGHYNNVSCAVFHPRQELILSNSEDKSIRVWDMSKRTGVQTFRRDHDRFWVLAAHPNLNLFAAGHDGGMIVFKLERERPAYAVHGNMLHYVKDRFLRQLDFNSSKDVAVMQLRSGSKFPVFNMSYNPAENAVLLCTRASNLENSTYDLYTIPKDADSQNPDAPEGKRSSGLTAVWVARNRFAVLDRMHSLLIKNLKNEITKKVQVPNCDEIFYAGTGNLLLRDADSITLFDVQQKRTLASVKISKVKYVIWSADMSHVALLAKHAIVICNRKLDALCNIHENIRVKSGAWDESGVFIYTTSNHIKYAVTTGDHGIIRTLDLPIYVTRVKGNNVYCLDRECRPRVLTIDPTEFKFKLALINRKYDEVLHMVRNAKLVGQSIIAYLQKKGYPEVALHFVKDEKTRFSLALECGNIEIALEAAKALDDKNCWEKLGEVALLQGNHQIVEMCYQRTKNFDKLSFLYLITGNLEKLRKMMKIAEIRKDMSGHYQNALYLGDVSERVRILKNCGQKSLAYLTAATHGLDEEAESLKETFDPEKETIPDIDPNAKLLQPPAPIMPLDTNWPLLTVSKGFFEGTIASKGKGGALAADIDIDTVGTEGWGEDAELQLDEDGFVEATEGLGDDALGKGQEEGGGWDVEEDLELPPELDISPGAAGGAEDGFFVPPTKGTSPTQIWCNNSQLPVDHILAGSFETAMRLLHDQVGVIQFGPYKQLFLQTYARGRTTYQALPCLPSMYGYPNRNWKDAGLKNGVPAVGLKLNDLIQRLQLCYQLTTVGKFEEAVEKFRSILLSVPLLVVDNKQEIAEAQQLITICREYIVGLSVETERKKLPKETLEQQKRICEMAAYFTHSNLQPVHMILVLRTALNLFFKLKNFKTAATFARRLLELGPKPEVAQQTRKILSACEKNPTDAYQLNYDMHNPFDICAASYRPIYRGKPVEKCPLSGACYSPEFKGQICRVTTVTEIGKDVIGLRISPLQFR

Experiment [10] concerns the target T10, HeLa cell extract proteins (Homo sapiens, UniProt P13674).
T10 construct: endogenous in cells; host or cells: HeLa cell extract

Where [11] appears, read: captured protein KIAA1524, HeLa.
Setting [12] is: HeLa, protein TPI1 (ISOFORM 1 OF TRIOSEPHOSPHATE ISOMERASE.).
Where [13] appears, read: HeLa, protein SSB (LUPUS LA PROTEIN.).

T4 sequence (P04792 whole entry): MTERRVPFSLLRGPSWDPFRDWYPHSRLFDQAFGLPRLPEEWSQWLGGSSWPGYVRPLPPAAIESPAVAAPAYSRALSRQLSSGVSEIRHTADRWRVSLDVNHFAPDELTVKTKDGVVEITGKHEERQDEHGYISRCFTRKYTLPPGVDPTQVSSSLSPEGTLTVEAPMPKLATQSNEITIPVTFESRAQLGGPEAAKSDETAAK
T2 sequence (P15559 whole entry): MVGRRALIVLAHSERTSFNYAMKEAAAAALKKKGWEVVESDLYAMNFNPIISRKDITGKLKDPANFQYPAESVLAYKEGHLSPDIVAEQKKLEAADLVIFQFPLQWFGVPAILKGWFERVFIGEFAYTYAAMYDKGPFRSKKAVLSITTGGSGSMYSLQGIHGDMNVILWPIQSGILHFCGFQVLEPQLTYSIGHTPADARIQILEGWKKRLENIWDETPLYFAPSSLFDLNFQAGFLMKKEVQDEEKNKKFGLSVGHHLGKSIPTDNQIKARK
T5 sequence (P60174 whole entry): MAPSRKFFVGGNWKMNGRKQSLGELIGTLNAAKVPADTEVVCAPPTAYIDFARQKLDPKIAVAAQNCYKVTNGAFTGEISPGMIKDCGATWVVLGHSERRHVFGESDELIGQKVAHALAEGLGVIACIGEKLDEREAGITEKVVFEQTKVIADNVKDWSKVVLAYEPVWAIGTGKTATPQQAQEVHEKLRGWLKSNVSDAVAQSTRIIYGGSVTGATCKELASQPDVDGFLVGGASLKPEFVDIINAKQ
T10 sequence (P13674 18-534): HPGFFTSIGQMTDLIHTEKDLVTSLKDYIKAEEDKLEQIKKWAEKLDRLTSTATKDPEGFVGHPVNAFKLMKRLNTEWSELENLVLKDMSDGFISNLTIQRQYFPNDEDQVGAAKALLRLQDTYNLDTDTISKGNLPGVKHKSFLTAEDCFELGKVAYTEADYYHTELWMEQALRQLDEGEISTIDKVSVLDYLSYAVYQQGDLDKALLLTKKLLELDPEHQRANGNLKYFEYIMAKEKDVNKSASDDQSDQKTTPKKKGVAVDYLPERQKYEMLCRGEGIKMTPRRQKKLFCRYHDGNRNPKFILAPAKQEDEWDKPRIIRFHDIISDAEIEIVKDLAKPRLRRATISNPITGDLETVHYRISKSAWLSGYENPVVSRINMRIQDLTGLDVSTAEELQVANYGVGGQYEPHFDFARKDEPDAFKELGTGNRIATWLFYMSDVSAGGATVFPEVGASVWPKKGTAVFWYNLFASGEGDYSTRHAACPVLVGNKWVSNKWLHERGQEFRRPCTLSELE

On to `CCCCCCOc1cccc(Cc2cnc(N)nc2N)c1` [compound 2], for which the “fold changes relative to vehicle control” value in [1] (setting [11]) is 1.09; in [2] (HeLa, protein NQO1) it was 1.22; in experiment [3] (protein RPL12, HeLa) it was 1.24; in experiment [4] (protein HSPB1, HeLa), 1.38; in [5] (setting [12]), 2.37 fold; in experiment [6] (protein ATP5B, HeLa) it was 0.83. Besides, the “fold changes relative to vehicle control” value in [7] (HeLa, protein SHMT2) is listed as 1.53; in experiment [8] (setting [13]), 2.04 fold; in experiment [9] (protein COPA, HeLa), 1.31; in experiment [10] (HeLa, protein P4HA1), 1.05.
With `NCCOCCOCC(=O)Nc1nc2ncc(CNc3ccc(C(=O)NC(CCC(=O)O)C(=O)O)cc3)nc2c(=O)[nH]1` (stereo not shown) [compound 6], the “fold changes relative to vehicle control” value in [1] (HeLa, protein KIAA1524) is given as 0.94; in experiment [2] (protein NQO1, HeLa) it was 0.6; in experiment [3] (HeLa, captured protein RPL12) it was 1.12; in experiment [4] (HeLa, protein HSPB1), 1.07; in experiment [5] (HeLa, protein TPI1) it was 1.41; in experiment [6] (HeLa, captured protein ATP5B), 0.96. For the same molecule, the “fold changes relative to vehicle control” value was 1.3 in [7] (HeLa, protein SHMT2); 1.31 in experiment [8] (HeLa, protein SSB); 1 in [9] (protein COPA, HeLa); 1 in [10] (HeLa, captured protein P4HA1).
As for `CCCCCCOc1ccc(Cc2cnc(N)nc2N)cc1` [compound 1], the “fold changes relative to vehicle control” value in [1] (setting [11]) amounted to 0.97; in experiment [2] (HeLa, protein NQO1), 1.12; in experiment [3] (protein RPL12, HeLa) it was 1.15; in experiment [4] (protein HSPB1, HeLa) it was 1.09; in [5] (setting [12]), 1.44 fold; in experiment [6] (protein ATP5B, HeLa), 1.02. The “fold changes relative to vehicle control” value in experiment [7] (HeLa, protein SHMT2) was found to be 0.8; in experiment [8] (setting [13]), 1.38 fold; in experiment [9] (protein COPA, HeLa) it was 1.07; in experiment [10] (HeLa, protein P4HA1), 0.9.
Consider `Nc1nc2c(c(=O)[nH]1)N(C=O)C(CNc1ccc(C(=O)N[C@@H](CCC(=O)O)C(=O)O)cc1)CN2` (stereo partly shown) [LEU, leucovorin], for which the “fold changes relative to vehicle control” value in experiment [1] (HeLa, protein KIAA1524) is listed as 0.87; in [2] (protein NQO1, HeLa), 1.12; in experiment [3] (HeLa, captured protein RPL12), 1.11; in [4] (HeLa, protein HSPB1), 1.01; in experiment [5] (HeLa, protein TPI1), 1.03; in [6] (HeLa, captured protein ATP5B), 1.09. Also, the “fold changes relative to vehicle control” value worked out at 1.01 in experiment [7] (HeLa, protein SHMT2); 1.03 in experiment [8] (HeLa, protein SSB); 0.81 in experiment [9] (protein COPA, HeLa); 1.02 in experiment [10] (HeLa, captured protein P4HA1).
Take `NCCCNc1ccc(C(=O)NC(CCC(=O)O)C(=O)O)cc1` (stereo not shown) [compound 7]: the “fold changes relative to vehicle control” value in experiment [1] (HeLa, protein KIAA1524) is given as 0.89; in experiment [2] (protein NQO1, HeLa) it was 2.36; in experiment [3] (HeLa, captured protein RPL12), 0.97; in experiment [4] (HeLa, protein HSPB1) it was 0.94; in experiment [5] (HeLa, protein TPI1), 1; in [6] (HeLa, captured protein ATP5B), 1.04. The “fold changes relative to vehicle control” value in experiment [7] (HeLa, protein SHMT2) turned out to be 1.02; in [8] (HeLa, protein SSB) it was 0.99; in [9] (protein COPA, HeLa), 0.89; in experiment [10] (HeLa, captured protein P4HA1), 1.04.
For `Nc1nc2[nH]cc(CCc3ccc(C(=O)N[C@@H](CCC(=O)O)C(=O)O)cc3)c2c(=O)[nH]1` [PTX, pemetrexed], the “fold changes relative to vehicle control” value turned out to be 0.87 in experiment [1]; 0.92 in experiment [2]; 1.13 in experiment [3]; 1 in experiment [4]; 1.22 in experiment [5]; 1.07 in [6]. In addition, the “fold changes relative to vehicle control” value in [7] was 1.13; in [8], 1.12; in experiment [9] it was 0.82; in experiment [10] it was 0.88.
In the case of `Nc1nc2cccc(-c3ccccc3)c2n1Cc1ccc(Cl)c(Cl)c1` [compound 3], the “fold changes relative to vehicle control” value is given as 0.98 in [1] (setting [11]); 1.13 in experiment [2] (HeLa, protein NQO1); 1.08 in experiment [3] (protein RPL12, HeLa); 0.88 in experiment [4] (protein HSPB1, HeLa); 0.88 fold in experiment [5] (HeLa, protein TPI1 (ISOFORM 1 OF TRIOS[…].)); 0.96 in experiment [6] (protein ATP5B, HeLa). Besides, the “fold changes relative to vehicle control” value in experiment [7] (HeLa, protein SHMT2) was determined as 0.92; in [8] (setting [13]), 1.01 fold; in experiment [9] (protein COPA, HeLa) it was 0.93; in experiment [10] (HeLa, protein P4HA1), 0.98.
